Biological target: Rho-associated protein kinase 1 (Homo sapiens, UniProt Q13464)
Experiment: In Vitro Assay
Settings: pH 7.5

Chain of Rho-associated protein kinase 1 (Q13464 whole entry): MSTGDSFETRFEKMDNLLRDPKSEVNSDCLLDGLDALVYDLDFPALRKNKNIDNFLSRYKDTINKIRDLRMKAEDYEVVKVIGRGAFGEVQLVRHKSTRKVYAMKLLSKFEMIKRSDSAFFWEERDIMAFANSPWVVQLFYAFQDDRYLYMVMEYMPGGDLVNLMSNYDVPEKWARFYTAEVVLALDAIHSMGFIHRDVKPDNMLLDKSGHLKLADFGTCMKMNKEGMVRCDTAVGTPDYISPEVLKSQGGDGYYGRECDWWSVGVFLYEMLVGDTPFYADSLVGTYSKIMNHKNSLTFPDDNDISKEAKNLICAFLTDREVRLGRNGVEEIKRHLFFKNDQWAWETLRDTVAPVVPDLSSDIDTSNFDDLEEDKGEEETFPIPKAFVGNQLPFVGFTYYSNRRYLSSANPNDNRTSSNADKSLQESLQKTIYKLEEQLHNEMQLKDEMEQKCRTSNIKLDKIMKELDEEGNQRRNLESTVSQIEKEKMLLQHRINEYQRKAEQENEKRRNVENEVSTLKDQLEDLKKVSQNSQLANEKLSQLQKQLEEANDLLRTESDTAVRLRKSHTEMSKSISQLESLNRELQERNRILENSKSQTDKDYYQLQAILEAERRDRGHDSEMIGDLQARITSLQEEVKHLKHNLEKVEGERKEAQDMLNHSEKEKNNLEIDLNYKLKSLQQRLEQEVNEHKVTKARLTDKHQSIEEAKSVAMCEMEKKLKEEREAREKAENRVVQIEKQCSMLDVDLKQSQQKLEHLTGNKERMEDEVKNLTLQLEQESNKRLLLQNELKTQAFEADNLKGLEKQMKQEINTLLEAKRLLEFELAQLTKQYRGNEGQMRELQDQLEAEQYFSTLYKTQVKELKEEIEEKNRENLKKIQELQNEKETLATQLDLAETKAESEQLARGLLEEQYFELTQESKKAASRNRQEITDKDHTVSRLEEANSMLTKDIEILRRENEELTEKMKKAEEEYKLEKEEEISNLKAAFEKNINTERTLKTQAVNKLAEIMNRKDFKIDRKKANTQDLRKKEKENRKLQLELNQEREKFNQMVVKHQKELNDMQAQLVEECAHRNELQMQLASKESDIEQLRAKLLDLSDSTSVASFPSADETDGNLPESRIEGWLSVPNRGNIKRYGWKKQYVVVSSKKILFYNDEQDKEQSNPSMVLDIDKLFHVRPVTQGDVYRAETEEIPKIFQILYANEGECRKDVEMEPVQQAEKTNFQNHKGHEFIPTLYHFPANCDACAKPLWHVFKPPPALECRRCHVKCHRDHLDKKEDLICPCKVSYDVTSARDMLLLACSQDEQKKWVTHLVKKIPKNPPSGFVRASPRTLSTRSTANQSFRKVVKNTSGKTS

`CNC(=O)C[C@@H](NC(=O)c1ccc(-c2cn[nH]c2)c(C)c1)c1ccccc1` [US9458110, 252] showed an IC50 of 41.1 nM.

Source: BindingDB's records for patent US9458110 (Bristol Myers Squibb, 2016)
